We go through one molecule from US20240417371A1, “CANNABIDIOL DERIVATIVE, AND PREPARATION METHOD THEREFOR AND USE THEREOF” (priority 2021, published 2024).

Series [1] deals with glycine. Description: Content of glycine in homogenate of brain tissues of rats (kit method). Format: in vivo, Wistar rats. The following applies: PTZ rats after 14 days, 100 mg/kg intragastric (positive drug = valproate). The procedure: (§1) 5. Determination of Contents of γ-Aminobutyric Acid, Glutamic Acid, Glycine, and Aspartic Acid in Rat Brain Tissue by the Kit Method
(§2) The experimental procedures and methods were referred to the kit instructions.
(§3) The contents of excitatory amino acids (glutamic acid and aspartic acid) and inhibitory neurotransmitters (γ-aminobutyric acid and glycine) in the homogenate of brain tissues were determined by an ELISA kit.

Series [2] concerns aspartic acid. Description: Content of aspartic acid in homogenate of brain tissues of rats (kit method). It is filed as in vivo, Wistar rats. The settings on record: PTZ rats after 14 days, 100 mg/kg intragastric (positive drug = valproate). The procedure: as §1, §2, §3
In series [3] the test system is dopamine. Description: Content of dopamine in striatum of the model of Parkinson's disease (kit method). It is filed as in vivo, C57/BL6 mice. The settings on record: MPTP mice; intragastric 100 mg/kg for 14 days (positive drug = amantadine 40 mg/kg). The source says:
After the mice were sacrificed quickly, the brains of the mice were taken and the cerebral palliums (CPs) of the mice were isolated. After exposing the brain striatum of the mice, the striatum was weighed and homogenized after adding PBS according to a proportion. The supernatant was isolated and detected for the content of dopamine in the brain striatum.

Series [4] can be described thus: Solubility in water. It is filed as physicochemical. The source says: ^1[…]=0.8 Hz, 1[…]=7.6 Hz, 2[…]=6.8 Hz, 3H).
Series [5] relates to tyrosine hydroxylase (TH) cells in substantia nigra (SubN). The series can be described thus: Tyrosine hydroxylase (TH) cells in substantia nigra (SubN) by immunohistochemistry. It is filed as in vivo, C57/BL6 mice. The settings on record: MPTP mice, intragastric 100 mg/kg for 14 days (positive drug = amantadine 40 mg/kg). The procedure: • (1) SPF-grade C57 mice aged 6-8 weeks were purchased and acclimatized for one week, and subsequently the modeling was started. • (2) MPTP (25 mg/kg) was intraperitoneally injected once a day for 7 consecutive days. The blank group was left untreated. • (3) After modeling, administration was started. […] The intragastric administration was performed once a day for 14 consecutive days. • (4) Behavioral test was first performed by balance beam test scoring.
5. Determination of Tyrosine Hydroxylase (TH) Cells in Substantia Nigra (SubN) by Immunohistochemistry
The tissue should be cut using sharp knives and scissors. When cutting a tissue mass, the tissue was cut by pulling backwards from the root of the knife. […] The prepared tissue mass was fixed in 10% formalin for 48 h.
The fixed tissue was washed with running water to remove residual fixing liquid and impurities. The tissue mass was dehydrated in stages with different concentrations of ethanol (50%, 70%, 85%, 95%, up to pure alcohol (absolute ethanol)), each stage for 2 h. Dehydration must be performed in a capped flask to prevent high concentrations of ethanol from absorbing moisture in the air, resulting in reduced concentrations and incomplete dehydration. The material to be preserved can remain in 70% ethanol when being dehydrated with it. For long-term preservation, an equivalent amount of glycerol can be added. […]

For orientation: solubility means the concentration that dissolves in the medium under given conditions. Read a low solubility as a poorly soluble substance. With `C=C(C)[C@@H]1CCC(C)=C[C@H]1c1c(O)cc(CCCCC)cc1OCC(=O)N[C@@H](CCSC)C(=O)[O-].[Na+]` [Compound E1], the Glycine in series [1] came to 0.67 ± 0.07 ng/µg. The Aspartic acid in series [2] worked out at 58.10 ± 11.71 µmol/g. In series [3], the “DA, content of dopamine in striatum after treatment” value is listed as 0.45 ± 0.09 # ng/mg. The molecule also yielded a solubility in series [4] of 27 mg/mL. Also, in series [5], the “TH cell positive rate” value is 16.92 ± 3.13 %.
